In patent publication US4269831A, “Topical dermatological method of use of an androstenopyrazole” (priority 1979, dated 1981):

Tests used:
[1] = test system: hair on the back of mature male Syrian golden hamsters; experiment: Reduction of hair regrowth on clipped back of hamsters; format: in vivo; conditions: 200 microliters on 9 cm2, 30 daily applications, vehicle 323±49 mg
Description: The hair on the back of mature male Syrian golden hamsters having a mean initial body weight of 107 g. (7 hamsters per group) was removed with electric clippers. The vehicle (200 microliters of ethanol) or the test solution (0.02% or 0.1% of the compound of Formula I in ethanol) was pipetted slowly to cover the entire clipped area (9 cm.^2). After 30 daily applications, the hair was clipped from the same area and the hair clippings were collected and weighed in order to measure hair regrowth. The hair weights averaged 119±15 and 109±17 mg. for hamsters treated with 0.02% and 0.1% of the compound of Formula I, respectively, compared to 323±49 mg. for vehicle-treated hamsters.

[2] = test system: flank organ of mature male Syrian golden hamsters; experiment: Topical comparison in mature male hamsters, right flank organ treated, left flank organ vehicle (Tables II, III); format: in vivo; conditions: for Flank organ Diameter, RFO / Flank organ Weight, RFO / Flank organ Development, RFO (median score): treated right flank organ; for Flank organ Diameter, RFO / Flank organ Weight, RFO: mean; for Flank organ Diameter, RFO / Flank organ Weight, RFO / Flank organ Development, RFO (median score) / Flank Organ (Mean Score) Area / Flank Organ (Mean Score) Elevation / Flank Organ (Mean Score) Hair Growth / Flank Organ (Mean Score) Hair Pigmentation / Flank Organ (Mean Score) Skin Pigmentation: n=7; for Flank organ Development, RFO (median score): scale 0 to 4 (0 barely visible, 4 as in mature male); for Flank Organ (Mean Score) Area / Flank Organ (Mean Score) Elevation / Flank Organ (Mean Score) Hair Growth / Flank Organ (Mean Score) Hair Pigmentation / Flank Organ (Mean Score) Skin Pigmentation: RFO, scale 0 to 4
Description: Each flank organ of mature male Syrian golden hamsters having a mean initial body weight of 105 g. was medicated topically with the compound of Formula I dissolved in ethanol (5 microliters) for twenty-one days. Flank organ hair was clipped three times per week to facilitate application. On the day following the last medication the hamsters were killed with an overdose of sodium pentobarbital. The flank organ parameters and the weights of seminal vesicles, adrenals and thymus glands were determined. Flank organ diameter was measured parallel to the breadth of the hamster with vernier calipers. Wet weights were obtained on flank organs excised around the periphery of the pigmented area. The topical activity of the compound of Formula I was also compared with that of 17β-hydroxy-17α-propylandrost-4-en-3-one, an antiandrogen, and hydrocortisone. In this experiment the right flank organ was treated with the test compound while vehicle-treated left flank organ served as control. […] In addition, the individual characteristics of the flank organ, elevation (thickness relative to adjacent skin), area, hair pigment, skin pigment and hair growth were all scored separately on a scale of 0 to 4.

[3] = test system: castrated immature male Syrian golden hamsters; experiment: Systemic antiandrogenic and glucocorticoid activity, subcutaneous, with testosterone propionate (Table IV); format: in vivo; conditions: mean, n=8
Description: A solution of the compound of Formula I in cottonseed oil was administered subcutaneously at 1 ml./kg. to castrated immature male Syrian golden hamsters having a mean initial body weight of 79 g. for 14 consecutive days concurrently with testosterone propionate. On the day following the last medication the hamsters were killed, the flank organ parameters were determined and the weights of seminal vesicles, adrenals and thymus glands were obtained.

[4] = target: T1, hamster flank organ cytosol receptor (Mesocricetus auratus, UniProt A0A1U7QL32); experiment: Binding competition with 3H-dihydrotestosterone in hamster flank organ cytosol in vitro (Table VI); design: species or system Syrian golden hamsters; conditions: 3H-DHT 2 nM, two hours, no antagonist 13.96
T1 construct: The homogenate was centrifuged (120,000×g for 45 min.) and the cytosol was frozen and stored at -70° C; from tissue; host or cells: flank organ cytosol of castrated male Syrian golden hamsters
T1 sequence (A0A1U7QL32 1-900): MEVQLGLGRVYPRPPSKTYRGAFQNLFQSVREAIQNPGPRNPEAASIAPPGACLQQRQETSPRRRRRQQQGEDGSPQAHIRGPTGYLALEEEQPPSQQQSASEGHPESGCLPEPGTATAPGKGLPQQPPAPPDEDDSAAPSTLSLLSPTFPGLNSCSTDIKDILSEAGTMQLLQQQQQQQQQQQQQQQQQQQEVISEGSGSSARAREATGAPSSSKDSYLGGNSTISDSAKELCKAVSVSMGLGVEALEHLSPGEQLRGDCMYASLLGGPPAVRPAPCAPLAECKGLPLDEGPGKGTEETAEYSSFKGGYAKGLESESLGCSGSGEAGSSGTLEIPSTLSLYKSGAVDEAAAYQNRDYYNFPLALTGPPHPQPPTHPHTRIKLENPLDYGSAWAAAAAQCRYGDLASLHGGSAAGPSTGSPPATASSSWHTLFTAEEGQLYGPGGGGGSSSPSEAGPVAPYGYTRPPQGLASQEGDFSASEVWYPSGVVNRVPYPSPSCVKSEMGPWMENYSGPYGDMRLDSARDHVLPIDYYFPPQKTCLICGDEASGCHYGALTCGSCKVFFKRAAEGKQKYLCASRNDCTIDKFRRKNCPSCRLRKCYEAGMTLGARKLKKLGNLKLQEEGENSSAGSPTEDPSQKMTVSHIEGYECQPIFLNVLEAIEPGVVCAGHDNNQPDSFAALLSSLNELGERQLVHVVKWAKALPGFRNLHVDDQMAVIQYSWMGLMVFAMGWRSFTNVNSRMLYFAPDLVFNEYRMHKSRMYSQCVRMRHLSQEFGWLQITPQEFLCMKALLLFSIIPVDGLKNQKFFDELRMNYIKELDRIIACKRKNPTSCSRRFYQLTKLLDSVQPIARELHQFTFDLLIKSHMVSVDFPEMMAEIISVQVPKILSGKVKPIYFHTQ
Description: The flank organs of twelve mature male Syrian golden hamsters each weighing from 120 to 140 g. and having been castrated 16-18 hours earlier were excised, dissected under the microscope to remove the dermis and the muscle layers and homogenized in buffer (1.5 volumes of 50 mM Tris, 0.5 mM mercaptoethanol and 0.1 mM ethylenediamine tetracetate, pH 7.4). The homogenate was centrifuged (120,000×g for 45 min.) and the cytosol was frozen and stored at -70° C. Six of the cytosol samples were thawed at room temperature, pooled and used for evaluation of in vitro binding.

[5] = test system: supracaudal glands of mature male guinea pigs; experiment: Topical study on supracaudal glands of guinea pigs; format: in vivo; conditions: 21 days
Description: The supracaudal glands of mature male guinea pigs having a mean initial body weight of 431 g. (8 guinea pigs per group) were medicated topically with a solution of the compound of Formula I (400 micrograms) in ethanol (10 microliters). Guinea pigs treated with ethanol served as controls. After 21 days of treatment the guinea pigs were killed and the areas of the supracaudal glands (pi×long radius×short radius) were measured in situ with calipers. The weights of seminal vesicles, adrenals and thymus glands were also measured.

[6] = 2.5 mg/kg/day sc for 14 days with testosterone propionate 0.4 mg/kg/day
[7] = 5 mg/kg/day sc for 14 days with testosterone propionate 0.4 mg/kg/day

CC#C[C@]1(O)CC[C@H]2[C@@H]3C[C@H](C)C4=Cc5[nH]ncc5C[C@]4(C)[C@H]3CC[C@@]21C [Compound of Formula I, 17β-Hydroxy-6α-methyl-17α-propynyl-4-androsteno[3,2-c]-pyrazole]
Hair weights (hair regrowth on clipped back area) ([1]; 0.02% in ethanol): 119 ± 15 mg | Hair weights (hair regrowth on clipped back area) ([1]; 0.1% in ethanol): 109 ± 17 mg | Flank organ Diameter, RFO ([2]; 5 μg/RFO for 21 days): 5.2 mm | Flank organ Weight, RFO ([2]; 5 μg/RFO for 21 days): 35.9 mg | Flank organ Development, RFO (median score) ([2]; 5 μg/RFO for 21 days): 3 | Flank organ Diameter, RFO ([2]; 50 μg/RFO for 21 days): 5.0 mm | Flank organ Weight, RFO ([2]; 50 μg/RFO for 21 days): 33.2 mg | Flank organ Development, RFO (median score) ([2]; 50 μg/RFO for 21 days): 3 | Dose response of flank organ inhibition ([2]; 5 and 50 μg/RFO topical for 21 days): flat dose response curve | Flank Organ (Mean Score) Area ([2]; 5 μg/flank organ for 21 days): 3.3 | Flank Organ (Mean Score) Elevation ([2]; 5 μg/flank organ for 21 days): 3.1 | Flank Organ (Mean Score) Hair Growth ([2]; 5 μg/flank organ for 21 days): 1.4 | Flank Organ (Mean Score) Hair Pigmentation ([2]; 5 μg/flank organ for 21 days): 3.6 | Flank Organ (Mean Score) Skin Pigmentation ([2]; 5 μg/flank organ for 21 days): 3.3 | Flank Organ (Mean Score) Area ([2]; 50 μg/flank organ for 21 days): 3.0 | Flank Organ (Mean Score) Elevation ([2]; 50 μg/flank organ for 21 days): 2.6 | Flank Organ (Mean Score) Hair Growth ([2]; 50 μg/flank organ for 21 days): 0 | Flank Organ (Mean Score) Hair Pigmentation ([2]; 50 μg/flank organ for 21 days): 3.0 | Flank Organ (Mean Score) Skin Pigmentation ([2]; 50 μg/flank organ for 21 days): 3.1 | Final Body Weight [3, 6]: 99 | Flank Organ Diameter [3, 6]: 4.0 mm | Flank Organ Wet Weight [3, 6]: 19.5 mg | Organ Weights: Adrenals [3, 6]: 12.7 mg | Organ Weights: Seminal Vesicles [3, 6]: 135 mg | Organ Weights: Thymus [3, 6]: 28 mg | Final Body Weight [3, 7]: 93 | Flank Organ Diameter [3, 7]: 3.6 mm | Flank Organ Wet Weight [3, 7]: 15.0 mg | Organ Weights: Adrenals [3, 7]: 12.3 mg | Organ Weights: Seminal Vesicles [3, 7]: 107 mg | Organ Weights: Thymus [3, 7]: 14 mg | % Bound (Mean ± SE) of 3H-dihydrotestosterone ([4]; unlabelled antagonist 20 nM, molar ratio 10): 9.94 ± .45% | % Bound (Mean ± SE) of 3H-dihydrotestosterone ([4]; unlabelled antagonist 200 nM, molar ratio 100): 8.55 ± .56% | % Bound (Mean ± SE) of 3H-dihydrotestosterone ([4]; unlabelled antagonist 2000 nM, molar ratio 1000): 6.30 ± .003% | Average area of the supracaudal glands ([5]; 400 micrograms in 10 microliters ethanol topical, control 104±7, p<0.01): 72±6 sq. mm. | Changes in weights of seminal vesicles, adrenals or thymus glands ([5]; 400 micrograms topical, versus control group): No changes
